Laboratory results reported in the NIST ThermoML archive (doi:10.1021/je060271a).
Where “and” joins values, the source holds several entries; their conditions need not be identical. Equal values may be shown once.

Details: 283.15 K, Liquid, Vibrating tube method

CCCCCCCC(=O)OCC(COC(=O)CCCCCCC)(COC(=O)CCCCCCC)COC(=O)CCCCCCC [pentaerythritol tetraoctanoate]
Details	mass density
105.3 kPa	970.3 kg/m3
105.5 kPa	970.3 kg/m3 and 970.4 kg/m3
105.6 kPa	970.3 kg/m3
105.8 kPa	970.4 kg/m3
106.7 kPa	970.3 kg/m3
110 kPa	970.3 kg/m3
125.3 kPa	970.3 kg/m3
155.9 kPa	970.3 kg/m3
203.3 kPa	970.4 kg/m3
224.9 kPa	970.3 kg/m3
235.2 kPa	970.4 kg/m3
246.6 kPa	970.5 kg/m3
262.8 kPa	970.4 kg/m3
277.9 kPa	970.4 kg/m3
295.3 kPa	970.4 kg/m3
319.3 kPa	970.4 kg/m3
342 kPa	970.5 kg/m3
369 kPa	970.5 kg/m3
405 kPa	970.4 kg/m3
438.1 kPa	970.4 kg/m3
468.4 kPa	970.6 kg/m3
495.5 kPa	970.6 kg/m3
514.6 kPa	970.6 kg/m3
534.1 kPa	970.6 kg/m3
557.4 kPa	970.6 kg/m3
575.1 kPa	970.6 kg/m3
593.5 kPa	970.7 kg/m3
616.6 kPa	970.7 kg/m3
636.3 kPa	970.5 kg/m3
653.5 kPa	970.7 kg/m3
671.5 kPa	970.7 kg/m3
693.4 kPa	970.7 kg/m3
713.6 kPa	970.7 kg/m3
734.1 kPa	970.7 kg/m3
760.8 kPa	970.8 kg/m3
784.3 kPa	970.7 kg/m3
808.6 kPa	970.7 kg/m3
834.5 kPa	970.7 kg/m3
866.8 kPa	970.7 kg/m3
896 kPa	970.7 kg/m3
926.4 kPa	970.8 kg/m3
962 kPa	970.8 kg/m3
986 kPa	970.9 kg/m3
1010.4 kPa	970.9 kg/m3
1035.5 kPa	970.8 kg/m3
1066.4 kPa	970.9 kg/m3
1094 kPa	970.9 kg/m3
1122.1 kPa	970.9 kg/m3
1158.4 kPa	971 kg/m3
1189.3 kPa	971 kg/m3
1219.2 kPa	971 kg/m3
1247.3 kPa	971 kg/m3
1270.1 kPa	971 kg/m3
1293 kPa	971 kg/m3
1317.3 kPa	971 kg/m3
1349.3 kPa	971.1 kg/m3
1370.1 kPa	971 kg/m3
1401.5 kPa	971 kg/m3
1428.9 kPa	971 kg/m3
1457.4 kPa	971 kg/m3
1492.1 kPa	971.2 kg/m3
1522.7 kPa	971.1 kg/m3
1554.3 kPa	971.1 kg/m3
1587.1 kPa	971.2 kg/m3
1627.7 kPa	971.1 kg/m3
1662.8 kPa	971.2 kg/m3
1700.3 kPa	971.2 kg/m3
1747.1 kPa	971.3 kg/m3
1789.7 kPa	971.2 kg/m3
1830.4 kPa	971.3 kg/m3
1873.1 kPa	971.3 kg/m3
1917.2 kPa	971.4 kg/m3
1972.4 kPa	971.4 kg/m3
2020.6 kPa	971.4 kg/m3
2068.2 kPa	971.4 kg/m3
2110.9 kPa	971.5 kg/m3
2137.9 kPa	971.4 kg/m3
2158.6 kPa	971.5 kg/m3
2179.8 kPa	971.5 kg/m3
2205.6 kPa	971.5 kg/m3
2227.8 kPa	971.7 kg/m3
2250.5 kPa	971.5 kg/m3
2273.6 kPa	971.6 kg/m3
2301.4 kPa	971.6 kg/m3
2325.3 kPa	971.7 kg/m3
2348.9 kPa	971.5 kg/m3
2373 kPa	971.7 kg/m3
2403 kPa	971.7 kg/m3
2427.5 kPa	971.6 kg/m3
2457.8 kPa	971.7 kg/m3
2484 kPa	971.6 kg/m3
2510.7 kPa	971.8 kg/m3
2543.2 kPa	971.8 kg/m3
2571.1 kPa	971.7 kg/m3
2600.6 kPa	971.7 kg/m3
2629 kPa	971.8 kg/m3
2663.7 kPa	971.7 kg/m3
2693.4 kPa	971.8 kg/m3
2723.9 kPa	971.8 kg/m3
2760.8 kPa	971.9 kg/m3
2792.7 kPa	971.8 kg/m3
2824.8 kPa	971.9 kg/m3
2857.6 kPa	971.9 kg/m3
2897.6 kPa	971.9 kg/m3
2931.4 kPa	971.9 kg/m3
2966.3 kPa	972 kg/m3
3008.8 kPa	972 kg/m3
3045.9 kPa	972.1 kg/m3
3082.4 kPa	972.1 kg/m3
3127.9 kPa	971.9 kg/m3
3166.3 kPa	972 kg/m3
3205 kPa	972.1 kg/m3
3245 kPa	972 kg/m3
3285.9 kPa	972.1 kg/m3
3335.9 kPa	972.2 kg/m3
3377.6 kPa	972.1 kg/m3
3420.8 kPa	972.2 kg/m3
3473.3 kPa	972.3 kg/m3
3517.6 kPa	972.2 kg/m3
3564.3 kPa	972.3 kg/m3
3620 kPa	972.3 kg/m3
3667.5 kPa	972.3 kg/m3
3715.9 kPa	972.5 kg/m3
3763.5 kPa	972.5 kg/m3
3809.1 kPa	972.5 kg/m3
3824.1 kPa	972.4 kg/m3
3841.3 kPa	972.6 kg/m3
3855.7 kPa	972.5 kg/m3
3869.7 kPa	972.6 kg/m3
3883.9 kPa	972.5 kg/m3
3899.8 kPa	972.5 kg/m3
4015.4 kPa	972.5 kg/m3
4176.4 kPa	972.7 kg/m3
4313.4 kPa	972.7 kg/m3
4335.2 kPa	972.8 kg/m3
4353.7 kPa	972.9 kg/m3
4372.3 kPa	972.8 kg/m3
4391.7 kPa	972.7 kg/m3
4414.3 kPa	972.8 kg/m3
4433.6 kPa	972.8 kg/m3
4453.1 kPa	972.8 kg/m3
4475.4 kPa	972.8 kg/m3
4475.5 kPa	972.8 kg/m3
4478.4 kPa	972.9 kg/m3
4490.5 kPa	972.9 kg/m3
4492.3 kPa	972.8 kg/m3
4499.1 kPa	972.9 kg/m3
